Experimental data: patent US20260069693A1, “UROLITHINS AND T-CELL MEDIATED IMMUNE RESPONSE” (priority 2022, published 2026)

Assays:
[1] = system: Th1/Th17 cell infiltration; details: model of EAE; cited from earlier work
CEA-CAR T cells = assay: UA applied to previously frozen CEA-CAR T cells; assay type: cell-based, human; details: previously frozen CEA-specific CAR-T cells, UA for three days
[2] = system: FoxP3+ T regulatory cells; details: cited from earlier work
CD19-CAR T cells = assay type: cell-based, human
Pgam5^−/− CD8^+ T cells = assay: aCD3/aCD28 stimulation of Pgam5-/- T cells in presence of UA; assay type: cell-based, mice
Excerpt: Next the inventors examined whether the observed upregulation of TCF1 was a result of enhanced Wnt signalling. […] To explore whether Pgam5 may be involved in UA-induced Wnt activation, the inventors examined Pgam5 localization upon UA administration. […] More importantly, Pgam5 loss blocked the UA-dependent expansion of CD44^−CD62L^+Sca1^Hi TSCM cells (FIG. 5I).
Splenic murine T cells were isolated from mice aged 6-20 weeks by negative selection with EasySep mouse T cell isolation kit (Stem cell) according to the manufacturer's instructions. To monitor T cell proliferation, purified T cells were loaded with CellTrace Violet (C34557 ThermoFisher Scientific). T cell activation was initiated using αCD3/CD28 activation beads (11456D; ThermoFisher Scientific) at a ratio of 25 μl dynabeads per 0.5×10^6 T-cells. Cells were activated with 25-50 μM Urolithin A (Tocris) or DMSO in T cell activation Medium (RPMI (ThermoFisher Scientific) 10% FBS (South America origin), 10 mM Hepes (Sigma), 1× Non-Essential Amino Acid, 1 mM Sodium Pyruvate, 50 μM B-Mercaptoethanol, 100 U/ml penicillin, 100 μg/ml streptomycin and 2 mM Glutamax (ThermoFisher Scientific) for the indicated durations. In selected experiments, cells were stimulated in the presence of inhibitors, namely TCF1i (ICG-001; SelleckChem; 10 μM) and PGC-1αi (SR-18292, Sigma-Aldrich; 10 μm,). For subsequent analysis, activating beads were magnetically removed prior antibody staining. For human T cells, peripheral blood mononuclear cells were purified with a Ficoll-Paque (GE healthcare) gradient. T cells were enriched with EasySep Human T Cell Isolation Kit (StemCell) and activated with dynabead Human T-Activator CD3/CD28 for T Cell Expansion and Activation Kit (11131D; ThermoFisher Scientific), similar to murine T cell stimulation.
For flow cytometric analysis of mitochondria and lysosomes 500 μl of Mitotracker Red (200 nM; ThermoFisher) or Lysotracker Red DND-99 (75 nM; ThermoFisher) were applied followed by surface staining. To study changes in mitochondrial membrane potential, Mitoprobe TMRM kit (ThermoFisher) was used according to the manufacturer's instructions. Cell proliferation was assessed by CellTrace Violet (Invitrogen, C34557) at a concentration of 5 μM according to manufacturer's instructions. For human samples, cells were stained as described above with Fixable Viability Dye-eF780, αCD95-BV421 (DX2; 562616), αCD62L-PE (DREG-56; 555544), αCCR7-AF700 (150503; 561143), αCD45RO-APC (UCHL; 559865), αCD45RA-FITC (HI100; 555488), αCD8-PE-CF594 (RPA-T8; 562282) and αCD4-BV786 (OKT4; 566806) from BD.

[3] = system: CEA-expressing human CRC organoids; assay: CEA-CAR T cell killing of CRC organoids; assay type: cell-based; details: 72 h co-culture, UA vs DMSO
Experimental: In human CRC organoids, CEA-expression was confirmed by flow cytometry […]CEACAM5-APC (487609; FAB41281A; R&D Systems) Before co-culture, CEA-CAR T cells were cultivated in presence or absence of UA for three days. The cytotoxicity assay was performed as described (Schnalzger et al., 2019), using 96 well plates coated with 15 μl Cultrex Basement Membrane Extract, Type 2 per well and organoids were seeded at a ratio of 1:8. Co-culture was performed for three days with 0.5×10^4 CAR T cells per well resuspended in organoid medium (as described above) without IL7/IL15. 100 μl luciferase assay reagent composed of 10% One-Glo EX Reagent (Promega) in lysis buffer (50 mM NaCl, 50 mM Tris-HCl pH 7.4, 1% Triton X-100) was added to each well and incubated at room temperature for 1 h protected from light. 100 μl of each sample was transferred to an opaque 96-well microtiter plate and measured using a SpectraMax iD3 microplate reader (Molecular Devices).

APTK-s.c. tumors = assay: subcutaneous APTK tumors, UA-supplemented diet; assay type: in vivo, C57BL/6 mice
[4] = UA treated Pgam5-/- CD8+ T cells, 48 h

O=c1oc2cc(O)ccc2c2ccc(O)cc12 [UA, Urolithin A]
Th1/Th17 cell infiltration [1]: blocking | CAR TSCM formation (CEA-CAR T cells): strongly enhanced | FoxP3+ T regulatory cells [2]: expanding | gene delivery into CD8+ cells (CD19-CAR T cells): did not impair | Markers of exhaustion of CAR T cells (CD19-CAR T cells; UA supplementation): not affected | CAR expressing TSCM cells (CD19-CAR T cells; three days post transduction, UA vs DMSO): markedly increased | CAR expressing TSCM cells, share of CD8+ cells (CD19-CAR T cells; three days post transduction, upon UA exposure): about 60% | lysosome formation (Pgam5^−/− CD8^+ T cells; Pgam5-/- CD8+ T cells): still enhanced | mitochondrial content (Pgam5^−/− CD8^+ T cells; Pgam5-/- CD8+ T cells): reduced | PGC-1a (Pgam5^−/− CD8^+ T cells; Pgam5-/- CD8+ T cells, 48 h, UA 50 μM): failed to enhance | UA-dependent expansion of CD44-CD62L+Sca1Hi TSCM cells (Pgam5^−/− CD8^+ T cells; Pgam5 loss, 48 h): blocked | TCF1 (Pgam5^−/− CD8^+ T cells; [4]): failed to upregulate | memory marker CD95 (Pgam5^−/− CD8^+ T cells; [4]): failed to upregulate | killing efficacy of CEA-expressing human CRC organoids [3]: comparable killing efficacy | tumor growth, UA diet combined with PD-1 blockade (APTK-s.c. tumors; UA-containing food + a-PD-1): sensitized APTK tumors to PD-1 blockade | tumor growth (APTK-s.c. tumors; UA-supplemented diet from day 11 after tumor injection vs control food): significantly reduced
